Assay results taken from patent US20150374673A1, “Combination Therapy for the Treatment of Nosocomial Pneumonia” (priority 2013, published 2015).

What was measured:
P. aeruginosa = test: Neutropenic thigh infection model (CD-1 mice), exposure response of ceftazidime q2h and avibactam; type: in vivo, Pseudomonas aeruginosa; conditions: for % fT>CT required to support a bacteriostatic effect: CT 1 mg/L; for Emax model maximum / Emax model minimum: ceftazidime q2h and avibactam q2h, SE between brackets; for % fT > CT1 of avibactam associated with 24-h stasis: CT1 = threshold concentration of 1 mg/L
Description: CD-1 neutropenic mice were infected with appr. 10^6 cfu β-lactamase-producing P. aeruginosa strains in the thigh.
Outbred female CD-1 mice (Charles River, Netherlands), 4 to 5 weeks old, weighing 20 to 25 g were used in the experiments. Granulocytopenia was induced by two doses of cyclophosphamide s.c.: one at four days (150 mg/kg) and the other at one day (100 mg/kg) before the infection experiment.
The neutropenic mice were infected with 2 P. aeruginosa strains per animal, one in the left and one in the right thigh. 0.05 mL of bacterial suspension consisting of approximately 10^5-10^6 bacteria was inoculated intramuscularly. […] All dosing regimens were performed in at least two animals. At t=0 h, 2 mice were humanely sacrificed to determine the initial inoculum just before treatment. All other animals were sacrificed at t=24 h unless the welfare of the animals indicated earlier termination was necessary, following animal welfare regulations. Thighs were taken and moved to a pre-cooled 10-mL plastic tube (Transport Tube, Omnilabo, NL) ? containing 2 mL phosphate buffered saline (PBS; NaCl 8.00 g/L, Na2HPO42H2 1.44 g/L, KH2PO4 0.26 g/L, pH 7.2-7.4). Subsequently thighs were ground using an Ultra-Turrax (IKA Labortechnik, Germany). A tenfold dilution series was prepared and 3×10 μL plated (Chromagar, Biomerieux, NL) per dilution. The following day, colonies were counted and the number of cfu per thigh calculated. The drug effect was then determined as the difference between the log10[cfu/thigh] values at t=24 h and t=0 h (mean value of 2 mice) expressed as “dcfu”.
The amount of avibactam administered varied in frequency and dose. […] The drug effect was determined as the difference between the log10 [cfu/thigh] values at t=24 h and t=0 h (mean value of 2 mice) expressed as dcfu. Free drug concentrations were used in all calculations. […] Oral presentation at the ? 52nd Interscience Conference on Antimicrobial Agents and Chemotherapy, San Francisco, Calif. Abstract #A-1760).

K. pneumoniae = test: MIC, CLSI broth microdilution in CAMHB with 0-10% pulmonary surfactant (avibactam fixed at 4 μg/mL in combination); type: cell-based; conditions: Klebsiella pneumoniae
Description: The bacterial strains used in this testing were part of the microbiological culture collection housed at AstraZeneca R&D Boston (AstraZeneca Research Collection, designated ARC). The panel of bacterial isolates used for this testing was comprised of five CLSI QC reference strains and the remainder were either recent clinical isolates expressing β-lactamases or isolates from the primary bacterial screening panels.
MIC values were determined using the CLSI broth microdilution methodology with slight variation. Stock compound mother plates were prepared and used to spot 2 μL aliquots of serial 2-fold drug dilutions to columns 1-11 of 96-well daughter plates using a Perkin-Elmer MiniTrak™ MultiPosition dispenser. […] An inoculum volume of 100 μL (5×10E^5 CFU/mL) in CAMHB containing 0, 1, 2.5, 5, or 10% pulmonary surfactant was added using a multichannel Finnpipette® to each well of the 96-well plate.
The minimum inhibitory concentration (MIC) values against each organism/drug combination were determined using broth microdilution methodology according to CLSI guidelines. The recommended reference bacterial strains for each test group and reference compounds were incorporated into each test. For Gram-negatives, the reference bacterial strains were Escherichia coli ATCC 25922, E. coli ATCC 35218, Klebsiella pneumoniae ATCC 700603, and Pseudomonas aeruginosa ATCC 27853. Staphylococcus aureus ATCC 29213 was the reference bacterial strain for the Gram-positives.
MIC values for individual isolates were read visually. The MICs for each compound or combination in pulmonary surfactant was compared to the compound or combination tested in CAMHB alone.

[1] = 6 P. aeruginosa strains, with fixed ceftazidime q2h, thigh
[2] = strain 1, thigh infection, Dose CAZ 32 mg/kg
[3] = strain 5, thigh infection, Dose CAZ 64 mg/kg
[4] = strain 7, thigh infection, Dose CAZ 64 mg/kg
[5] = strain 11, thigh infection, Dose CAZ 64 mg/kg
[6] = strain 18, thigh infection, Dose CAZ 64 mg/kg
[7] = strain 19, thigh infection, Dose CAZ 32 mg/kg

For NC(=O)[C@@H]1CC[C@@H]2CN1C(=O)N2OS(=O)(=O)[O-].[Na+] [avibactam, [(2S,5R)-2-carbamoyl-7-oxo-1,6-diazabicyclo[3.2.1]octan-6-yl]hydrogen sulfate], which “mean % fT>CT 1 mg/L for static effect” value (P. aeruginosa; [1]) is on record?
Its value is 36.3%.

And the “range of % fT>CT 1 mg/L for static effect” value (P. aeruginosa; [1])?
The value was 14.1-62.5.

And the “% fT>CT required to support a bacteriostatic effect” value (P. aeruginosa; strain 7, thigh)?
The value was 30.2.

And the “% fT>CT required to support a bacteriostatic effect” value (P. aeruginosa; strain 18, thigh)?
Its value is 74.1.

And the “% fT>CT required for static effect” value (P. aeruginosa; CT of 1 mg/L, dose fractionation studies, 2 strains, with ceftazidime q2h, thigh)?
The value was 30.2-74.1.

What about the “% fT > CT1 of avibactam associated with 24-h stasis, mean” value (P. aeruginosa; mean of 6 strains (sd 17.8), thigh infection, CT1 = 1 mg/L) of the same compound?
The value was 36.3%.

What about the Emax model maximum (P. aeruginosa; strain 1) of the same compound?
The Emax model maximum was 1.26.

And the Emax model minimum (P. aeruginosa; strain 1)?
Its Emax model minimum is “≈′−727.5”.

And the “TDD AVI associated with 24-h stasis” value (P. aeruginosa; [2])?
The value was 123.70 mg/kg.

And the “log TDD AVI associated with 24-h stasis” value (P. aeruginosa; [2])?
Its value is 2.09.

And the “% fT > CT1 of avibactam associated with 24-h stasis” value (P. aeruginosa; [2])?
Its value is 37.2%.

What about the Emax model maximum (P. aeruginosa; strain 5) of the same compound?
The Emax model maximum was “≈0.70”.

And the Emax model minimum (P. aeruginosa; strain 5)?
The Emax model minimum was −3.25 (0.95).

What about the “TDD AVI associated with 24-h stasis” value (P. aeruginosa; [3]) of the same compound?
Its value is 33.59 mg/kg.

And the “log TDD AVI associated with 24-h stasis” value (P. aeruginosa; [3])?
The value was 1.53.

What about the “% fT > CT1 of avibactam associated with 24-h stasis” value (P. aeruginosa; [3]) of the same compound?
Its value is 14.1%.

What about the Emax model maximum (P. aeruginosa; strain 7) of the same compound?
The Emax model maximum was 1.81 (0.29).

What about the Emax model minimum (P. aeruginosa; strain 7) of the same compound?
Its Emax model minimum is −2.83 (1.41).

And the “TDD AVI associated with 24-h stasis” value (P. aeruginosa; [4])?
Its value is 267.47 mg/kg.

What about the “log TDD AVI associated with 24-h stasis” value (P. aeruginosa; [4]) of the same compound?
Its value is 2.43.

What about the “% fT > CT1 of avibactam associated with 24-h stasis” value (P. aeruginosa; [4]) of the same compound?
Its value is 50.4%.

And the Emax model maximum (P. aeruginosa; strain 11)?
The Emax model maximum was 1.40 (0.50).

And the Emax model minimum (P. aeruginosa; strain 11)?
Its Emax model minimum is −2.95 (0.41).

What about the “TDD AVI associated with 24-h stasis” value (P. aeruginosa; [5]) of the same compound?
Its value is 77.88 mg/kg.

And the “log TDD AVI associated with 24-h stasis” value (P. aeruginosa; [5])?
Its value is 1.89.

And the “% fT > CT1 of avibactam associated with 24-h stasis” value (P. aeruginosa; [5])?
Its value is 29.1%.

What about the Emax model maximum (P. aeruginosa; strain 18) of the same compound?
Its Emax model maximum is 0.83 (0.36).

And the Emax model minimum (P. aeruginosa; strain 18)?
The Emax model minimum was −2.36 (0.23).

And the “TDD AVI associated with 24-h stasis” value (P. aeruginosa; [6])?
Its value is 58.91 mg/kg.

And the “log TDD AVI associated with 24-h stasis” value (P. aeruginosa; [6])?
The value was 1.77.

What about the “% fT > CT1 of avibactam associated with 24-h stasis” value (P. aeruginosa; [6]) of the same compound?
Its value is 24.2%.

And the Emax model maximum (P. aeruginosa; strain 19)?
Its Emax model maximum is 2.46 (0.22).

And the Emax model minimum (P. aeruginosa; strain 19)?
Its Emax model minimum is −1.42 (0.46).

And the “TDD AVI associated with 24-h stasis” value (P. aeruginosa; [7])?
The value was 541.34 mg/kg.

And the “log TDD AVI associated with 24-h stasis” value (P. aeruginosa; [7])?
The value was 2.73.

And the “% fT > CT1 of avibactam associated with 24-h stasis” value (P. aeruginosa; [7])?
The value was 62.5%.

What about the “effect on ceftazidime static % fT>MIC” value (P. aeruginosa; thigh infection, all strains) of the same compound?
The value was “reduced”.

What about the MIC (K. pneumoniae; ATCC700603, K. pneumoniae ARC561 (ATCC 700603; SHV-18, OXA-2, OKP-6), surfactant 0%) of the same compound?
The MIC was > 64 µg/mL.

What about the MIC (K. pneumoniae; ATCC700603, K. pneumoniae ARC561 (ATCC 700603; SHV-18, OXA-2, OKP-6), surfactant 1%) of the same compound?
The MIC was > 64 µg/mL.

What about the MIC (K. pneumoniae; ATCC700603, K. pneumoniae ARC561 (ATCC 700603; SHV-18, OXA-2, OKP-6), surfactant 2.5%) of the same compound?
The MIC was > 64 µg/mL.

And the MIC (K. pneumoniae; ATCC700603, K. pneumoniae ARC561 (ATCC 700603; SHV-18, OXA-2, OKP-6), surfactant 5%)?
The MIC was 64 µg/mL.

What about the MIC (K. pneumoniae; ATCC700603, K. pneumoniae ARC561 (ATCC 700603; SHV-18, OXA-2, OKP-6), surfactant 10%) of the same compound?
The MIC was 64 µg/mL.

And the MIC (K. pneumoniae; K. pneumoniae ARC1865 (Primary Screening Panel), surfactant 1%)?
The MIC was > 64 µg/mL.

What about the MIC (K. pneumoniae; K. pneumoniae ARC1865 (Primary Screening Panel), surfactant 2.5%) of the same compound?
Its MIC is 64 µg/mL.

What about the MIC (K. pneumoniae; K. pneumoniae ARC1865 (Primary Screening Panel), surfactant 5%) of the same compound?
Its MIC is > 64 µg/mL.

And the MIC (K. pneumoniae; K. pneumoniae ARC1865 (Primary Screening Panel), surfactant 10%)?
Its MIC is > 64 µg/mL.
